Test results from ChEMBL document CHEMBL5137057, “Small Carbohydrate Derivatives as Potent Antibiofilm Agents” (J Med Chem, 2022).
In brackets after ≈: the same amount, converted by molar mass.

Experiments:
Staphylococcus aureus = assay: Antibiofilm activity against Staphylococcus aureus USA300 assessed as inhibition of biofilm formation at 256 ug/ml measured after 24 hrs by crystal violet staining based assay relative to control; type: functional; set-up: scale not given: the % may be the effect or the level left; conditions: dose 256 µg/ml
Escherichia coli = assay: Antibiofilm activity against Escherichia coli UTI89 at 2.5 ug/ml incubated for 72 hrs by crystal violet staining based assay relative to control; type: functional; conditions: dose 2.5 µg/ml
Sortase A = Sortase A (Streptococcus mutans, UniProt Q8CM62); assay: Inhibition of Streptococcus mutans ATCC 2517 Sortase A protease expressed in Escherichia coli BL21 expression system using Abz-LPATG-Dap(Dnp)-NH2 as substrate incubated for 1 hrs by FRET assay
Streptococcus mutans = assay: Antibiofilm activity against Streptococcus mutans ATCC 2517 assessed as inhibition of biofilm formation at 128 ug/ml measured after 16 hrs by crystal violet staining based assay relative to control; type: functional; set-up: scale not given: the % may be the effect or the level left; conditions: dose 128 µg/ml
[1] = Binding affinity to C-terminal 6His-tagged Escherichia coli UTI89 FmlH (1 to 160 residues) expressed in Escherichia coli C600 expression system assessed as dissociation constant by biolayer interferometry assay
Pseudomonas aeruginosa [2] = assay: Antibiofilm activity against Pseudomonas aeruginosa ATCC 27853 at 0.5 mg/ml measured after 24 hrs by crystal violet staining based assay relative to control; type: functional
[3] = target: T1, PA-I galactophilic lectin (Pseudomonas aeruginosa (strain ATCC 15692 / PAO1 / 1C / PRS 101 / LMG12228), UniProt Q05097); assay: Inhibition of FITC-labelled Pseudomonas aeruginosa LecA incubated for 1 hr by fluorescence based analysis
T1 sequence (Q05097 whole entry): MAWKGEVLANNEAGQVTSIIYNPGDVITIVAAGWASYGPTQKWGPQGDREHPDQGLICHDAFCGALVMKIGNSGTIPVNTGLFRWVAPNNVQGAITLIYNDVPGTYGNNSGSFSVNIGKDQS

Pseudomonas aeruginosa [4] = assay: Potentiation of ciprofloxacin-induced antibacterial activity against Pseudomonas aeruginosa MTCC 2488 biofilm at 410 ug/ml incubated for 24 hrs pretreated with compound followed by ciprofloxacin addition by congo red binding assay; type: functional; conditions: dose 410 µg/ml
[5] = test system: Aggregatibacter actinomycetemcomitans; assay: Antibacterial activity Actinobacillus actinomycetemcomitans ATCC 700685 assessed as bacterial growth inhibition incubated for 24 hrs by broth dilution assay; type: functional
Pseudomonas aeruginosa [6] = assay: Potentiation of tetracyclin-induced antibacterial activity against Pseudomonas aeruginosa MTCC 2488 biofilm at 410 ug/ml incubated for 24 hrs pretreated with compound followed by tetracyclin addition by congo red binding assay; type: functional; conditions: dose 410 µg/ml
Porphyromonas gingivalis = assay: Antibacterial activity Porphyromonas gingivalis ATCC 33277 assessed as bacterial growth inhibition incubated for 24 hrs by broth dilution assay; type: functional
Pseudomonas aeruginosa [7] = assay: Antibacterial activity against Pseudomonas aeruginosa MTCC 2488 biofilm at 410 ug/ml incubated for 24 hrs by congo red binding assay; type: functional; conditions: dose 410 µg/ml
[8] = Inhibition of C-terminal 6His-tagged Escherichia coli UTI89 FmlH (1 to 160 residues) expressed in Escherichia coli C600 expression system using tetramethylbenzidine as substrate incubated for 1 hr by […]
Cutibacterium acnes [9] = assay: Antibiofilm activity against Propionibacterium acnes LMG 16711 assessed as inhibition of biofilm formation at 0.08 % (w/v) incubated for 24 hrs by fluorescence based analysis; type: functional; set-up: scale not given: the % may be the effect or the level left
Cutibacterium acnes [10] = assay: Antibiofilm activity against Propionibacterium acnes LMG 16711 assessed as inhibition of biofilm formation at 0.01 % (w/v) incubated for 24 hrs by fluorescence based analysis; type: functional; set-up: scale not given: the % may be the effect or the level left

Chain of Sortase A (Q8CM62 whole entry): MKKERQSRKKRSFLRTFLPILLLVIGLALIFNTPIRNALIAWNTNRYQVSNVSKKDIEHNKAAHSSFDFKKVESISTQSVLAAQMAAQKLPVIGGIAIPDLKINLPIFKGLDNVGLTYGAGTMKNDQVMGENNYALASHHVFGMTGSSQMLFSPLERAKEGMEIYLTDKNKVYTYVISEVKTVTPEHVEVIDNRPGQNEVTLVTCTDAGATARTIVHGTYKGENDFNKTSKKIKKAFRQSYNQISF

For O=c1cc(-c2ccc(O)cc2)oc2cc(O)c([C@@H]3O[C@H](CO)[C@@H](O)[C@H](O)[C@H]3O)c(O)c12 [ISOVITEXIN], the Activity (Staphylococcus aureus) was 61%.
CC(=O)O[C@@H]1[C@@H](O)[C@@H](O)[C@H](O[C@@H]2[C@@H](O)[C@H](OCCc3ccc(O)c(O)c3)O[C@H](CO)[C@H]2OC(=O)/C=C/c2ccc(O)c(O)c2)O[C@H]1C showed an Activity (Escherichia coli) of 77%.
C[C@H]1O[C@@H](O[C@H]2C(=O)c3c(O)cc(O)cc3O[C@@H]2c2ccc(O)c(O)c2)[C@H](O)[C@H](O)[C@H]1O gave an IC50 (Sortase A) of 16.7 µM and an Activity (Streptococcus mutans) of 70%.
O=C(O)C[C@H]1[C@@H](Oc2ccccc2[N+](=O)[O-])O[C@H](CO)[C@H](O)[C@@H]1O gave a Kd [1] of 10.6 µM.
CC(=O)O[C@@H]1[C@H](O[C@H]2CC[C@H](C)[C@@]3(C)C[C@@H](/C(C)=C/CC=C(C)C)CC[C@H]23)OC[C@@H](OC(C)=O)[C@H]1OC(C)=O gave an Activity (Pseudomonas aeruginosa [2]) of 60%.
In the case of OC[C@H]1O[C@@H](OCc2cn([C@H]3[C@H](O)[C@@H](O)[C@H](c4cn([C@H]5[C@H](O)[C@@H](O)[C@H](n6cc([C@@H]7O[C@H](CO)[C@@H](n8cc(CO[C@@H]9O[C@H](CO)[C@H](O)[C@H](O)[C@H]9O)nn8)[C@H](O)[C@H]7O)nn6)O[C@@H]5CO)nn4)O[C@@H]3CO)nn2)[C@H](O)[C@@H](O)[C@H]1O, the IC50 [3] is reported as 0.028 µM.
C[C@@H]1O[C@@H](O[C@H]2[C@H](Oc3cc(O)c4c(c3)O[C@H](c3ccc(O)cc3)CC4=O)O[C@H](CO)[C@@H](O)[C@@H]2O)[C@H](O)[C@H](O)[C@H]1O [NARINGIN] showed an Activity (Pseudomonas aeruginosa [4]) of 89.35%, an MIC50 [5] of 9800 µg/mL (≈ 16.9 mM) and an Activity (Pseudomonas aeruginosa [6]) of 73.76%. For the same compound, the MIC50 (Porphyromonas gingivalis) was 9800 µg/mL (≈ 16.9 mM) and the Activity (Pseudomonas aeruginosa [7]) was 49.5%.
O=C(O)C[C@H]1[C@@H](Oc2ccccc2-c2cccc(C(=O)O)c2)O[C@H](CO)[C@H](O)[C@@H]1O showed a Kd [8] of 0.64 µM.
In the case of CC(C)=CCc1c(O[C@@H]2O[C@H](CO)[C@@H](O)[C@H](O)[C@H]2O)cc(O)c2c(=O)c(O[C@@H]3O[C@H](CO)[C@@H](O)[C@H](O)[C@H]3O)c(-c3ccc(O)c(O)c3)oc12, the Activity (Cutibacterium acnes [9]) is reported as 75% and the Activity (Cutibacterium acnes [10]) is reported as 40%.
